Data from patent US11911356B2, “Regulation of mutant TERT by BRAF V600E/map kinase pathway through FOS/GABP in human cancer” (THE JOHNS HOPKINS UNIVERSITY, priority 2017, dated 2024).

Legend:
[1] = system: ERK phosphorylation; assay: Western blotting of phosphorylated ERK in inhibitor-treated cells; format: cell-based, human; conditions: cells harboring wild-type BRAF; 0.2 uM AZD6244, 24 hours
Protocol: FIG. 2A-2G. BRAF V600E/MAPK pathway regulated TERT expression. (FIG. 2A) TERT expression was analyzed by qRT-PCR in cells treated with 0.5 uM PLX4032 or 0.2 uM AZD6244 for 24 hours (upper panel). The corresponding levels of phosphorylated ERK (p-ERK), total ERK (t-ERK), and beta-actin were detected by Western blotting (lower panel). The relative TERT mRNA expression levels were normalized to the DMSO control group. (FIG. 2B) Luciferase reporting assay of TERT promoter activities in K1 cells treated with DMSO or PLX4032 (0.5 uM). (FIG. 2C, 2D) Specific shRNA against BRAF were used to knock down BRAF in thyroid cancer cell lines BCPAP and K1 and melanoma cell line A375. Scramble shRNA was used as control. Cells were then subjected to Western blotting (FIG. 2C) and qRT-PCR (FIG. 2D). (FIG. 2E) Sequencing of the BRAF exon-15 in the parental and heterozygous BRAF-V600E knock-in SW48 cells. BRAF V600E was knocked in on one allele of BRAF by rAAV technology through homologous recombination and Cre recombinase of the Neo cassette. (FIG. 2F) Western blotting analyses of phosphorylation of ERK (p-ERK), total ERK (t-ERK), BRAF, and beta-actin in the parental and BRAF-V600E knock-in SW48 cells. (FIG. 2G) TERT promoter luciferase reporter assay in SW48 cells with/without BRAF V600E knock-in. **P<0.01, ***P<0.001, by 2-tailed Student's t test. P values are for the comparison of the indicated condition with DMSO (FIG. 2B), scramble (FIG. 2D), or BRAF-WT groups (FIG. 2G). All the values represent the average standard deviation (SD) of triplicate samples from a typical experiment. All the experiments were performed three times with similar results. […]
Cells were lysed in the RIPA buffer (#sc-24948; Santa Cruz Biotechnology, Santa Cruz, CA) with protease inhibitor cocktail (#P8340; Sigma-Aldrich) and phosphatase inhibitor cocktail (#P0044; Sigma-Aldrich) and Western blotting analysis was performed as we previously described^54. […] Signals were detected by SuperSignal™ West Pico PLUS Chemiluminescent Substrate (#34579; Thermo Fisher Scientific). […]

[2] = system: TERT expression; assay: TERT expression by qRT-PCR in human cancer cell lines treated with inhibitors; format: cell-based; conditions: 0.2 uM AZD6244, 24 hours
Protocol: FIG. 2A-2G. BRAF V600E/MAPK pathway regulated TERT expression. (FIG. 2A) TERT expression was analyzed by qRT-PCR in cells treated with 0.5 uM PLX4032 or 0.2 uM AZD6244 for 24 hours (upper panel). The corresponding levels of phosphorylated ERK (p-ERK), total ERK (t-ERK), and beta-actin were detected by Western blotting (lower panel). The relative TERT mRNA expression levels were normalized to the DMSO control group. (FIG. 2B) Luciferase reporting assay of TERT promoter activities in K1 cells treated with DMSO or PLX4032 (0.5 uM). (FIG. 2C, 2D) Specific shRNA against BRAF were used to knock down BRAF in thyroid cancer cell lines BCPAP and K1 and melanoma cell line A375. Scramble shRNA was used as control. Cells were then subjected to Western blotting (FIG. 2C) and qRT-PCR (FIG. 2D). (FIG. 2E) Sequencing of the BRAF exon-15 in the parental and heterozygous BRAF-V600E knock-in SW48 cells. BRAF V600E was knocked in on one allele of BRAF by rAAV technology through homologous recombination and Cre recombinase of the Neo cassette. (FIG. 2F) Western blotting analyses of phosphorylation of ERK (p-ERK), total ERK (t-ERK), BRAF, and beta-actin in the parental and BRAF-V600E knock-in SW48 cells. (FIG. 2G) TERT promoter luciferase reporter assay in SW48 cells with/without BRAF V600E knock-in. **P<0.01, ***P<0.001, by 2-tailed Student's t test. P values are for the comparison of the indicated condition with DMSO (FIG. 2B), scramble (FIG. 2D), or BRAF-WT groups (FIG. 2G). All the values represent the average standard deviation (SD) of triplicate samples from a typical experiment. All the experiments were performed three times with similar results.
FIG. 3A-3C. MYC regulated TERT expression in a TERT promoter mutation-independent manner. (FIG. 3A) The four indicated cancer cell lines harboring BRAF V600E mutation were treated with 0.5 uM PLX4032 and/or 10 nM MYC-specific siRNA (siMYC) for 24 hours, which were then subjected to Western blotting (upper panel) and qRT-PCR (lower panel). The relative TERT mRNA expression was normalized to the control group. (FIG. 3B, 3C) Parental and BRAF V600E knock-in SW48 cells were treated with control siRNA (siControl) or MYC-specific siRNA (siMYC, 10 nM) for 48 h, followed by Western blotting (FIG. 3B) and luciferase reporter assays (FIG. 3C). *P<0.05, **P<0.01, ***P<0.001, by 2-tailed Student's t test. n.s., not significant. All the values represent the average standard deviation (SD) of triplicate samples from a typical experiment. Similar results were obtained in two additional independent experiments.
FIG. 9A-9B. Summarized effects of PLX4032 (FIG. 9A) and AZD6244 (FIG. 9B) on TERT mRNA expression. Each bar represents the average+SD of the cells with the same genotypes as follows: BRAF-mut and TERT-mut cell lines: BCPAP, K1, OCUT1, A375, and M14; BRAF-mut and TERT-wt cell lines: SK-MEL-1, SK-MEL-3, and RKO; BRAF-wt and TERT-mut cell lines: TPC1, KAT18, C643, CHL-1, SK-MEL-2, and Mewo; BRAF-wt and TERT-wt cell lines: FB1, WRO, and HTORI3. Compared with the corresponding control of DMSO, **P<0.01, ***P<0.001, by independent t-test.
The BRAF V600E-specific inhibitor PLX4032 (#S1267) and the MEK1 inhibitor AZD6244 (#S1008) were purchased from Selleck Chemicals (Houston, TX), dissolved in DMSO with a stock concentration of 10 mM and stored at −20° C. PLX4032 and AZD6244 were used to treat cells for 24 hours at 0.5 μM and 0.2 μM, respectively, where indicated in the manuscript. DMSO was used as the vehicle control.
Total RNA was extracted from cultured cells using the TRIzol reagent (#15596-018; Ambion, Life Technologies, Carlsbad, CA) and reverse-transcribed to cDNA using the SuperScript III First-Strand Synthesis System (#18080-051; Invitrogen, Life Technologies, Carlsbad, CA). Gene expression was analyzed in triplicate using FastStart Universal SYBR Green Master with ROX (#04913850001; Roche Applied Science, Indianapolis, IN) on the Applied Biosystems 7900HT Fast Real-Time PCR System. […]

## Cn1cnc2c(F)c(Nc3ccc(Br)cc3Cl)c(C(=O)NOCCO)cc21 [AZD6244]
[1]
  ERK phosphorylation: modest inhibitory effect
[2]; cells harboring BRAF V600E mutation
  TERT expression: similarly inhibited TERT expression
[2]; cells harboring wild-type BRAF, TERT promoter mutant versus wild-type
  TERT expression: inhibited TERT expression more in those harboring TERT promoter mutations
